Assay results: patent publication US7452869B2, “NIP3 family of proteins” (University of Manitoba, priority 2000, dated 2008)
Starred links: 1 amine or outer side, 2 acyl side, 3 side chain; linkers in the order of their positions; H or OH if unused. Positions of bridges follow the written chain, without caps; N, C: chain ends. Non-standard residues stand in square brackets, D forms with d. Residues, ends and D or L forms follow the SMILES beside them. Chains are numbered I, II in the order given. *: point of attachment. Actinocin(9to1) = Cc1c2oc3c(C)ccc(C(=O)[*:1])c3nc-2c(C(=O)[*:2])c(N)c1=O; NMeV = CN[C@H](C(=O)O)C(C)C; Cbz = O=C(OCc1ccccc1)*; Sar = CNCC(=O)O; CH2F = FC*

How the values were obtained:
[1] = system: primary hippocampal neurons; assay: excitotoxic cell death of primary hippocampal neurons, trypan blue exclusion; assay type: cell-based, rat
Protocol: Primary hippocampal neurons were prepared from 18-day-old embryonic Sprague-Dawley rats as described previously by Haughey, N. J. et al. (2001). Briefly, hippocampal tissue was dissociated by gentle tituration in a calcium-free Hank's balanced salt solution and was centrifuged at 1000×g. Cells were resuspended in Dulbecco's modified Eagle's medium (DMEM)/F12 nutrient mixture containing 10% heat-inactivated fetal bovine serum and 1% antibiotic solution (104 IU of penicillin G/ml, 10 mg streptomycin/ml and 25 μg amphotericin B/ml) in 0.9% NaCl (Sigma, St Louis, Mo., USA). Hippocampal neurons were plated at a density of 2×10^5 cells/ml on 12-mm diameter poly d-lysine-coated glass coverslips. Three hours after plating, the media was replaced with serum-free Neurobasal media containing 1% B-27 supplement (Gibco, Rockville, Md., USA).
To determine the extent to which NMDA-type glutamate receptors were involved in BNIP3 expression and excitotoxic cell death, the inventors used the agonist NMDA (100 μM) in the absence or presence of the NMDA receptor antagonist MK-801 (10 μM). To determine the extent to which caspase activation contributes to BNIP3-mediated cell death, hippocampal cells were incubated in the absence or presence of the broad spectrum cell permeable caspase inhibitors z-VAD-FMK (50 μM) and BOC-D-FMK (50 μM); these inhibitors were applied 30 minutes prior to application of glutamate or NMDA. […]
In vitro cell death was estimated using trypan blue exclusion. Cells were incubated in 0.4% trypan blue solution for 30 minutes and then counted on a bright-field microscope. Nonviable cells were distinguished by their dark blue staining. To examine nuclear morphology, nuclear DNA was stained with Hoescht 33342. DNA fragmentation was detected by TUNEL using an in situ cell death detection kit with fluorescein. Statistical analyses were by ANOVA with Tukey's post-test.

[2] = system: MEFs; assay: b-galactosidase cell death assay in wild-type, Apaf-1, caspase 9 or caspase 3 deficient MEFs; assay type: cell-based, mouse; conditions: Apaf-1, caspase 9 or caspase 3 deficient MEFs, 3 mg of adriamycin per ml for 24 hours
Protocol: (§1) Various doses of the peptide caspase inhibitor Ac-zVAD-fmk (Enzyme System Products, Dublin, Calif.) were applied to 1×10^5 293T cells cotransfected, using LipofectAmine reagent (Gibco-BRL), with 0.01 mg of the reporter plasmid pcDNA3bgal plus the indicated expression plasmids to a final amount of 0.75 mg of DNA (see FIG. 2), as adjusted with empty vector. Cells were fixed, stained, and evaluated 27 hours posttransfection as described previously (Miura, M. et al., 1993). Similar strategies were used to evaluate the expression of pcDNA1-p35 as a caspase inhibitor (1.95 mg of DNA total) and to determine the killing efficiency of BNIP3 expressed in MEF cells (1.2 mg of DNA with 0.3 mg of b-galactosidase).
Results are expressed as the mean […] SE from three independent experiments. […] N, N-Dimethyl formamide (DMF) was used to dilute the adriamycin.

[3] = system: 293T cells; assay: DNA fragmentation (TUNEL) in transfected 293T cells; assay type: cell-based; set-up: dose or concentration left out as unconfirmed
Protocol: DNA fragmentation was detected using the in situ cell death detection kit with fluorescein (Boehringer Mannheim) as per the manufacturer's recommendations in the presence or absence of […] Ac-zVAD-fmk or Ac-FA-fmk. Images were captured as described earlier. No fewer than 200 nuclei were scored manually for each sample. Annexin V staining was performed exactly as described by the manufacturer (Boehringer Mannheim), and samples were analyzed via flow cytometry.

[4] = system: caspase 3-like proteases; assay: caspase activation, colorigenic cleavage of Ac-DEVD-pNA by lysates of transfected 293T cells; assay type: biochemical
Protocol: Lysates were collected from 293T cells, transiently transfected via the CaP04 method (Ray, R., et al., 1999), at the indicated times. Aliquots of these lysates were run under Laemmli sodium dodecyl sulfate-polyacrylamide gel electrophoresis (SDS-PAGE) conditions and immunoblotted with mouse monoclonal anti-PARP. Results were visualized with an enhanced chemiluminescence system (Amersham Pharmacia Biotech, Amersham, U. K.). Transfected 293T cells were also assayed for caspase cleavage via colorigenic cleavage of the peptide Ac-DEVD-pNA (Biomol, Plymouth Meeting, Pa.), according to the conditions outlined by Quignon et al. (Scaffidi, C., et al., 1998), using 100 mM peptide. Where appropriate, samples were preincubated with 500 nM Ac-DEVD-fmk for 30 minutes at room temperature. Data were acquired on a Multiskan MCC/340 (Titertek) plate reader at 405 nm.

[5] = system: 293T cells; assay: b-galactosidase cell death assay in transiently transfected 293T cells; assay type: cell-based
Protocol: as §1

[6] = system: ventricular myocytes; assay: cell viability of ventricular myocytes, calcein acetoxymethyl ester / ethidium homodimer-1; assay type: cell-based; conditions: z-VAD-fmk 25 to 100 μmol/L, dose dependent
Protocol: Ventricular myocytes were isolated from 1- to 2-day-old Sprague-Dawley rats (University of Manitoba, Winnipeg, Canada) and submitted to primary culture as reported (Kirshenbaum and Schneider, 1995). Myocytes were subjected to hypoxia for 24 hours in an air-tight chamber continually gassed with 95% N2-5% CO2, as previously reported (Moissac et al., 2000; Long et al., 1997; Tanaka et al., 1994). Adult rat hearts (n=3) were excised from adult rats (250 to 300 g) and subjected to global hypoxia for 1 hour on a modified Langendorff perfusion system with buffer continually gassed with 95% N2-5% CO2, as previously reported (Kirshenbaum, 1993). Heart failure was induced in rats by surgical ligation of the left anterior descending coronary artery, as previously reported (Dixon et al., 1992). Non-failing sham control hearts and those with heart failure were excised from animals 8 weeks after myocardial infarction. Hearts (n=3) were dissected to remove the infarcted scar tissue, and the left ventricular free wall was homogenized and analyzed by Western blot for BNIP3 expression. Animals were handled according to guidelines established by the University of Manitoba and Canadian Council on Animal Care.
The cDNAs for BNIP3 full-length (BNIP3) and carboxyl terminal transmembrane domain deletion mutant (BNIP3ΔTM) have been described previously (Vande et al., 2000). Recombinant adenoviruses encoding the full-length BNIP3 or transmembrane deletion mutant are designated AdBNIP3 or AdBNIP3ΔTM, respectively, and generated as reported previously (Kirshenbaum et al., 1993).
Cell viability was determined using the vital dyes 2 μmol/L calcein acetoxymethyl ester (green) to determine the number of living cells and 2 μmol/L ethidium homodimer-1 (red) (Molecular Probes) to identify the number of dead cells (Kirshenbaum and Schneider, 1995). The number of green cells versus red cells was used to determine changes in cell viability (Moissac et al., 2000). Cells were analyzed from at least n=3 independent myocyte isolations counting ≧200 cells for each condition tested. Data are expressed as mean±SE percent reduction from control.

[7] = inhibitor, 24 hours posttransfection

## CN[C@H](CC(=O)O)C(=O)O [NMDA]
[1]; 6 hours after application, p<0.01
  neuronal cell death (trypan blue exclusion): significantly increased

## COc1cccc2c1C(=O)c1c(O)c3c(c(O)c1C2=O)C[C@@](O)(C(=O)CO)C[C@@H]3O[C@H]1C[C@H](N)[C@H](O)[C@H](C)O1 [adriamycin]
[2]
  adriamycin-induced cell death in mutant MEFs: profound resistance

## CC(=O)NC(Cc1ccccc1)C(=O)NC(C)C(=O)CF (centres unmarked) [Ac-FA-fmk]
[3]; Ac-FA-fmk
  DNA fragmentation (TUNEL) in parallel populations: No effect

## Cc1c2oc3c(C)ccc(C(=O)N[C@@H]4C(=O)N[C@H](C(C)C)C(=O)N5CCC[C@H]5C(=O)N(C)CC(=O)N(C)[C@@H](C(C)C)C(=O)O[C@@H]4C)c3nc-2c(C(=O)N[C@@H]2C(=O)N[C@H](C(C)C)C(=O)N3CCC[C@H]3C(=O)N(C)CC(=O)N(C)[C@@H](C(C)C)C(=O)O[C@@H]2C)c(N)c1=O [actinomycin D] (I: T[dV]P[Sar][NMeV] / II: T[dV]P[Sar][NMeV]; ester I:1-I:C, II:1-II:C; linker I:N-II:N via Actinocin(9to1))
[1]; actinomycin D 1 mg/ml added, p<0.01, to untreated control levels
  number of trypan blue positive cells caused by glutamate toxicity: significantly decreased
[1]; actinomycin D alone
  cell death rates, drug alone: did not affect

## CC(=O)N[C@@H](CC(=O)O)C(=O)N[C@@H](CCC(=O)O)C(=O)N[C@H](C(=O)N[C@@H](CC(=O)O)C(=O)CF)C(C)C [Ac-DEVD-fmk]
[4]; 500 nM Ac-DEVD-fmk
  proteolytic activity of lysates of BNIP3 or BNIP3DTM transfected cells with inhibitor: not inhibited
[4]; lysates preincubated with 500 nM Ac-DEVD-fmk
  Ac-DEVD-pNA substrate cleavage in tBID-transfected cells with inhibitor: blocked

## COC(=O)C[C@H](NC(=O)[C@H](C)NC(=O)[C@@H](NC(=O)OCc1ccccc1)C(C)C)C(=O)CF [Ac-zVAD-fmk] (Cbz-Val-Ala-Asp(OMe)-CH2F)
[5]; 293T cells transfected with BNIP3, evaluated 27 hours posttransfection, p35 plasmid up to 1.5 mg
  BNIP3-induced cell death in presence of caspase inhibitor: unaffected
[5]; 293T cells, 27 hours posttransfection, same concentration of inhibitor
  suppression of cell death of tBID or caspase 9/Apaf-1 transfectants: greater than 50%
[3]; [7]
  DNA fragmentation (TUNEL) in BNIP3 transfectants: partially inhibited
  DNA fragmentation (TUNEL) in tBID-expressing cells: nearly completely inhibited
[1]; z-VAD-FMK 50 μM alone, trypan blue 6 hours after glutamate or NMDA
  cell death caused by glutamate or NMDA: did not prevent
[6]; listed as z-VAD-fmk
  BNIP3-induced cell death of ventricular myocytes: prevented
[6]; listed as z-VADfmk
  BNIP3-induced cell death of ventricular myocytes: suppressed
